Assay results published in paper PMC8282797, “Strictly regulated agonist-dependent activation of AMPA-R is the key characteristic of TAK-653 for robust synaptic responses and cognitive improvement” (Scientific Reports, 2021).
“Also recorded” adds a separate entry of the source. Where two headings read alike, the source gives them in different places.

Columns and labels:
[1] = test system: MK-801-induced working memory deficit in rats; assay: Radial arm maze (RAM) test, MK-801-induced working memory deficit; type: in vivo, rat
Description: RAM tests were performed using 9-week-old male Long-Evans rats as previously described with a minor modification. Each arm was 50 cm long, 10 cm wide and 40 cm high, and the maze was elevated 50 cm above the floor. Long-Evans rats were food-restricted to 85% of free-feeding body weight throughout the experimental period. Rats were well trained to collect pellets placed on the edge of each arm. The learning criterion for the testing session was defined as 2 errors or fewer for 2 consecutive days. In the testing session, each rat was placed on the maze facing the fixed arm at the start of the trial. The entry of rats into each arm was recorded in sequence until all pellets in the 8 arms were consumed, or 5 min had elapsed. […] Thirty min after dosing of vehicle or MK-801, rats were placed on the maze. Details are described in the Supplementary Information.
The experiment was performed using 9-week-old male Long-Evans rats as described previously (Zajaczkowski et al., 1996) with a minor modification. Each arm was 50 cm long, 10 cm wide and 40 cm high, and the maze was elevated 50 cm above the floor. After being fasted for 24 h, male Long-Evans rats were food-restricted to 85% of free-feeding body weight on the first day of exposure to the maze and throughout the experimental period. The experiment consists of two sessions, training and testing session. In the training session, rats were habituated to the maze and then trained. Reinforcement consisted of 3 food pellets (45 mg each) in the food cup was used. On the first day of habituation to the maze, reinforcements were placed near the entrance and at the mid-point of each arm. Three rats were placed on the maze at one time and allowed to explore and consume the pellets for 8 min. On the second day of habituation, each rat was placed on the maze and allowed 5 min to consume the pellets placed at the mid-point and in the food cup at the end of each arm. From the third day, reinforcement was placed in the food cup at the end of each arm. Rats were well trained to collect pellets placed on the edge of each arm. The learning criterion for the testing session was defined as 2 errors or less for two consecutive days. In the previous day of the testing session, baseline level of performance was qualified to confirm that rats completed collecting all pellets placed in the 8 arms with two errors or less. In the testing session, each rat was placed on the maze facing away from the experimenter and facing the fixed arm at the start of the trial. The entry of rats into each arm was recorded in sequence. Rats were allowed to explore until all pellets in the 8 arms were consumed, or 5 min had elapsed. Entry into an arm previously chosen was counted as an error. […] […] Thirty min after dosing of vehicle or MK-801, rats were placed on the maze. Data were indicated as the mean ± SEM in the testing session.

naïve rats = conditions: cited from earlier work; for NORT (effective doses): summary
rats [2] = conditions: cited from earlier work
rats [3] = test system: rats; design: method as in PMID 30209408; conditions: 10 and 30 mg/kg, p.o.; cited from earlier work
AMPA-R [4] = test system: AMPA-R; design: key to Single effect on Ca2+ level: -: No effect or slight effect; +: Potent; ++: Very potent; conditions: cited from earlier work; for Intracellular Ca2+ level, Agonistic effect @30 μM: absence of AMPA, % of 5 μM AMPA + 10 μM HBT1 response; for EC50: in the presence of 5 μM AMPA, read-out: Intracellular Ca2+ level, Potentiation EC50; for Single effect on Ca2+ level: summary grade
AMPA-R [5] = test system: AMPA-R; design: key to Single effect on AMPA-R currents: -: No effect or slight effect; +: Potent; ++: Very potent; conditions: cited from earlier work; for AMPA-R currents, Agonistic effect @30 μM: absence of AMPA, % of AMPA (100 μM)-induced steady-state response; for EC50: in the presence of 1 μM AMPA, read-out: AMPA-R currents, Potentiation EC50; for Single effect on AMPA-R currents: summary grade
AMPA-R [6] = assay: Whole-cell patch clamp recording in acute PFC slices (AMPA-R-mediated EPSPs); type: cell-based, rat; design: key to Synaptic EPSP response: -: No effect or slight effect; +: Potent; ++: Very potent; conditions: for Synaptic EPSP response: summary grade
Description: Coronal PFC slices were prepared from male Sprague–Dawley rats (10- to 14-day-old). The slices including layer V PFC pyramidal neurons were perfused at a flow rate of 1–2 ml/min with recording aCSF containing the following: 124 mM NaCl, 5 mM KCl, 1.2 mM NaH2PO4, 1.5 mM MgCl2, 2.5 mM CaCl2, 10 mM glucose, 24 mM NaHCO3 bubbled with carbogen (95% O2; 5% CO2). Current clamp recordings at holding potential of approximately − 65 mV with constant current were carried out at 32–33 °C using a pipette filled with an intracellular solution consisting of: 140 mM K-gluconate, 4 mM KCl, 10 mM HEPES, 0.2 mM EGTA, 4 mM MgATP, 0.3 mM Na2GTP, pH 7.3 with KOH in the presence of bicuculline (20 μM), CGP52422 (10 μM), and APV (50 μM) to block GABAA and B and NMDA receptors, respectively. Methods are described in the Supplementary Information.
Coronal prefrontal cortex (PFC) slices were prepared from male Sprague-Dawley rats (10- to 14-day-old). Animals were sacrificed following acute decapitation, and their brain was quickly removed and placed in an ice-cold modified artificial cerebrospinal fluid (aCSF) of the following composition: 92 mM N-methyl-D-glucamine (NMDG), 2.5 mM KCl, 1.25 mM NaH2PO4, 30 mM NaHCO3, 20 mM HEPES, 25 mM glucose, 2 mM thiourea, 5 mM Na-ascorbate, 3 mM Na-pyruvate, 0.5 mM CaCl2, and 10 mM MgSO4. The pH of the solution was titrated to 7.3-7.4 with concentrated HCl. Coronal slices were cut at a thickness of 300 μm with using a linear slicer PRO7 (Dosaka EM, Kyoto, Japan). Slices were initially recovered for ≤ 15 min at 34°C and then transferred to a holding chamber containing HEPES holding aCSF (92 mM NaCl, 2.5 mM KCl, 1.25 mM NaH2PO4, 30 mM NaHCO3, 20 mM HEPES, 25 mM glucose, 2 mM thiourea, 5 mM Na-ascorbate, 3 mM Na-pyruvate, 2 mM CaCl2 and 2 mM MgSO4) at room temperature for at least 1 h before starting the recording. The slices were then transferred to the recording chamber mounted on a FN1 microscope (Nikon, Tokyo, Japan), in which they were submerged and perfused at a flow rate of 1-2 ml/min with recording aCSF containing the following: 124 mM NaCl, 5 mM KCl, 1.2 mM NaH2PO4, 1.5 mM MgCl2, 2.5 mM CaCl2, 10 mM glucose, 24 mM NaHCO3. All aCSF solutions were continuously bubbled with carbogen (95% O2; 5% CO2). Differential interference contrast (DIC) microscopy (C10639, Hamamatsu, Japan) was used to visualize pyramidal neurons in the PFC. Patch pipettes (5-6 MΩ) were prepared from borosilicate capillary glass using a micropipette puller PC-10 (NARISHIGE, Tokyo, Japan). Current clamp recordings were carried out at 32-33°C using a pipette filled with intracellular solution consisting of: 140 mM K-gluconate, 4 mM KCl, 10 mM HEPES, 0.2 mM EGTA, 4 mM MgATP, 0.3 mM Na2GTP, pH 7.3 with KOH in the presence of bicuculline (20 μM), CGP52422 (10 μM), and APV (50 μM) to block GABAA and B and NMDA receptors, respectively. Signals were recorded using a Multiclamp 700B amplifier (Molecular Devices, LLC, Orleans Drive Sunnyvale, CA), digitized using a Digidata 1440A interface board, filtered between 2 kHz, sampled at 10 kHz, and analyzed with pClamp10 software. Layer V PFC pyramidal neurons were recorded at holding potential of approximately –65 mV with constant current. A hyperpolarizing step (–20 pA) prior to each stimulation was used to monitor any changes in access resistance. Postsynaptic potentials were evoked by constant current single stimulation pulses (100 μs, 10-100 μA) delivered with a 20-s interstimulus interval using monopolar stimulating electrodes positioned in layer I.

GluA2o LBD = GluA2o LBD (Homo sapiens, UniProt P42262); design: method as in earlier work; conditions: read-out: IC50, binding affinity to the GluA2o LBD by SPA using [3H]-HBT1; cited from earlier work
[7] = test system: MK-801-induced working memory deficit in rats; design: method as in earlier work; conditions: summary, fasted conditions; cited from earlier work
[8] = design: method as in earlier work; conditions: cited from earlier work

Sequence of GluA2o LBD (P42262 with tags, fused parts or gaps): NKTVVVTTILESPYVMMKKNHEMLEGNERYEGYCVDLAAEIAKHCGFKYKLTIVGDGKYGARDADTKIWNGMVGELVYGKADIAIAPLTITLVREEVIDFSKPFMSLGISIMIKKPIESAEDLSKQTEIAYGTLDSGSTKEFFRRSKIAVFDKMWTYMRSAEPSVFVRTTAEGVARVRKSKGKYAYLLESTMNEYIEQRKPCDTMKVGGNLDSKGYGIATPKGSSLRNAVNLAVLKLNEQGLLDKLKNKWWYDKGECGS

Row | SMILES | NORT (effective doses) (naïve rats) | Margin based on AUCplasma (rats [2]) [fold] | Margin based on plasma Cmax (rats [2]) [fold] | Intracellular Ca2+ level, Agonistic effect @30 μM (AMPA-R [4]) [%] | EC50 (AMPA-R [4]) [nM] | Single effect on Ca2+ level (AMPA-R [4]) | AMPA-R currents, Agonistic effect @30 μM (AMPA-R [5]) [%] | EC50 (AMPA-R [5]) [nM] | Single effect on AMPA-R currents (AMPA-R [5]) | Synaptic EPSP response (AMPA-R [6]) | IC50 (GluA2o LBD) [nM] | other results
1 | CC(C)S(=O)(=O)NC[C@H](C)c1ccc(-c2ccc(C#N)cc2)cc1 [LY451646] | Effective (1, 3) | 4.0 | 3.4 | 88 | 780 | ++ | 39 | 1900 | + | + | 390 | Working memory in the RAM test ([1]; 0.03 to 1 mg/kg, p.o., MK-801 0.08 mg/kg, s.c.): neither LY451646 at 0.03 to 1 mg/kg, p.o. nor AMPA at 0.1 to 3 mg/kg, i.p. improve; RAM (effective doses) ([1]; summary): No effect; Dose improving visual learning and memory in NOR test (naïve rats; p.o., rats): ≥ 1 mg/kg; Seizure (rats [3]): induced seizure; Membrane potentials of recorded neurons (AMPA-R [6]): did not increase; Suprathreshold response (AMPA-R [6]; 30 μM for 10 min): enhanced the suprathreshold response; Suprathreshold polysynaptic EPSPs (number of spikes, EPSP duration) (AMPA-R [6]; 0.3 to 30 μM): moderate potentiation
2 | O=S1(=O)CCN2C=CC=C(c3ccc(Oc4ccccc4)cc3)C2=N1 [TAK-137, 9-(4-phenoxyphenyl)-3,4-dihydropyrido[2,1-c][1,2,4]thiadiazine 2,2-dioxide] | Effective (0.1, 1) | 122 | 42 | 7.6 | 420 | ─ | 6.4 | 1400 | ─ | ++ | 65 | RAM (effective doses) [7]: Effective (0.2, 0.6) ^\; Polysynaptic EPSP duration and evoked spikes (AMPA-R [6]; 3 μM, 10 min): potently enhanced; also recorded: robustly enhanced; Brain concentration under fasted conditions, relative to fed conditions [8]: 71%; Plasma concentration under fasted conditions, relative to fed conditions [8]: 67%
